Experimental data: patent publication US20210213039A1, “COMPOSITION CONTAINING ECTOINE OR HYDROXYECTOINE AS AN ACTIVE SUBSTANCE FOR PROMOTING THE REGENERATION OF INJURED BODY TISSUE” (Bitop AG, priority 2012, published 2021)

Assays:
[1] = system: porcine ex-vivo skin punches; experiment: Ex-vivo porcine wound healing model (skin punches, wound healing score); set-up: species or system pig; settings: for Wound healing progress based on the PBS control (MW) / Absolute wound healing progress (wound healing score, MW): 5 μl into the wound, after 48 h; for Wound healing progress based on the PBS control (MW): PBS isotonic = 1.00; for Absolute wound healing progress (wound healing score, MW): score 0-4; for Wound healing potential: porcine ex-vivo skin punches
Method: An ex-vivo porcine wound healing model was used as it has been described in patent publication DE 103 17 400 B4.
From the plicae of washed and sterilized pig ears sample punches 6 mm in diameter were taken. From the center of the punches the epidermis and the upper dermis were removed in an area of 3 mm. Immediately after the models had been generated 5 μl of the test substances were introduced into the wounds, while 5 μl of PBS were applied into the control models. After 48 h (t48 h) the models were flash-frozen and stored at −80° C.
14 test series each were carried out so that 8 to 11 evaluable models were available for each sample.
The models were completely embedded in tissue freezing medium (company of Leica, Nussloch), and 6 μm thin sections were prepared using a cryostat. Care had been taken that the focus was always in the center of the respective model.
The sections were placed on SuperFrost object slides, air dried, fixed for 10 min. in −20° C. cold acetone, and stored at −80° C.
All models were stained with hematoxylin/eosin (2 sections each). The sequence of the staining process was as follows:
The staining was evaluated by means of a Leica light microscope DM LS and an Olympus Camedia digital camera.
0: No wound healing progress 1: Small wound tongue 2: Large wound tongue 3: Closed sheet 4: Multi-layered closed sheet.
In the event that both wound margins could be assessed the average between the left and the right wound margin was determined. The statistical evaluations were made using Student's paired T-test.

[2] = system: HaCaT cells (human skin cells); experiment: Wound closure in vitro: circular injury in a HaCaT monolayer; type: cell-based; settings: for Area of Injury (MW): 0.5% FCS, n=4
Method: Plating of HaCaT cells (human skin cells) took place on collagen-I coated 24-well plates. With a complete medium (10% FCS=fetal calf serum) the cells grew together as monolayer within a period of 24 h.
After this cell layer had closed a circular injury was applied in the center using a sterile tip of a defined diameter that averaged 0.68 mm (0.363 mm^2).
When the injury had been applied the complete medium was changed to a starvation medium containing only 0.5 w/w of FCS (fetal calf serum) instead of 10% w/w FCS. The following test solutions were then pipetted on the cells (per solution: n=4):
0.5% FCS+PBS (phosphate buffered saline), control solution 0.5 FCS+1 mM ectoine 0.5 FCS+10 mM ectoine 0.5% FCS+100 mM ectoine.
Over a time span of 48 h the cells were incubated with the test solutions during which wound closure was documented with the aid of a digital camera. In each case photos were taken at the beginning and then at 24-h intervals. The area still found to be free in each case was measured or calculated and expressed in mm^2. The results can be seen from the following tables (SD: Standard deviation, MW: Mean value): […]

[3] = system: ARPE-19 cells (adherent retinal pigment epithelial cells); experiment: Re-epithelialization scratch assay; type: cell-based; settings: for Gap width in %: after 24 h, untreated sample = 100%; for Gap width in treated cell cultures (re-epithelialization): first two days, especially in serum-free cultures
Method: After 24 hours of incubation using 0, 0.1, 0.5, 1, 2.5 and 5 mM of ectoine/hydroxyectoine in serum-free and serum-containing media defined cell areas were removed (scratch assay) from a confluent cell layer of ARPE-19 cells (adherent retinal pigment epithelial cells). The width of the applied gap was determined via microscope at previously marked places. 24 and 48 hours later in each case a photo documentation was prepared with the gap width being again determined at the respective places. 6 tests were performed for each concentration.
The mean value of the gap widths after 24 h of the sample not treated with ectoine was determined to be 100%. The following gap width percentages could be detected: […]

CC1=NC[C@H](O)[C@@H](C(=O)O)N1 [HE hypertonic, Hydroxyectoine]
Wound healing progress based on the PBS control (MW) [1]: 1.21 | Absolute wound healing progress (wound healing score, MW) [1]: 2.08

OCC(CO)O[C@H]1O[C@H](CO)[C@@H](O)[C@H](O)[C@H]1O [GG I, Glucosylglycerol]
Wound healing progress based on the PBS control (MW) [1]: 1.42 | Absolute wound healing progress (wound healing score, MW) [1]: 2.12

CC1=NC[C@H](O)[C@@H](C(=O)O)N1 [HE I, Hydroxyectoine]
Wound healing progress based on the PBS control (MW) [1]: 1.05 | Absolute wound healing progress (wound healing score, MW) [1]: 1.92

OCC(CO)OC1OC(CO)[C@@H](O)C(O)C1O (stereo in doubt) [glucosylglycerol, 2-O-α-D-glucosylglycerol]
Wound healing potential [1]: improved wound healing potential

CC1=NCC[C@@H](C(=O)O)N1 [ectoine, (S)-2-methyl-1,4,5,6-tetrahydropyrimidine-4-carboxylic acid]
Closure of the circular injury in comparison with the control solution ([2]; 1 mM ectoine): marked tendency towards faster closure | Area of Injury (MW) ([2]; 1 mM ectoine, after 0 hours): 0.354 mm^2 | Area of Injury (MW) ([2]; 1 mM ectoine, after 24 hours): 0.157 mm^2 | Area of Injury (MW) ([2]; 1 mM ectoine, after 48 hours): 0.042 mm^2 | Closure of the circular injury in comparison with the control solution ([2]; 10 mM ectoine): marked tendency towards faster closure | Area of Injury (MW) ([2]; 10 mM ectoine, after 0 hours): 0.351 mm^2 | Area of Injury (MW) ([2]; 10 mM ectoine, after 24 hours): 0.182 mm^2 | Area of Injury (MW) ([2]; 10 mM ectoine, after 48 hours): 0.023 mm^2 | Closure of the circular injury in comparison with the control solution ([2]; 100 mM ectoine): delayed healing | Area of Injury (MW) ([2]; 100 mM ectoine, after 0 hours): 0.325 mm^2 | Area of Injury (MW) ([2]; 100 mM ectoine, after 24 hours): 0.244 mm^2 | Area of Injury (MW) ([2]; 100 mM ectoine, after 48 hours): 0.171 mm^2 | Gap width in % ([3]; 0.1 mM ectoine): 100.687% | Gap width in % ([3]; 0.5 mM ectoine): 96.434% | Gap width in % ([3]; 1 mM ectoine): 91.632% | Gap width in % ([3]; 2.5 mM ectoine): 93.012% | Gap width in % ([3]; 5 mM ectoine): 88.418% | Gap width in treated cell cultures (re-epithelialization) [3]: diminished faster

CC1=NC[C@H](O)[C@@H](C(=O)O)N1 [hydroxyectoine, (4S,5S)-5-hydroxy-2-methyl-1,4,5,6-tetrahydropyrimidine-4-carboxylic acid]
Re-epithelialization, hydroxyectoine compared with ectoine [3]: slightly more effective with hydroxyectoine than with ectoine | Gap width in treated cell cultures (re-epithelialization) [3]: diminished faster | Wound healing potential [1]: improved wound healing potential

OCC(CO)O[C@H]1O[C@H](CO)[C@@H](O)[C@H](O)[C@H]1O [GG hypertonic, Glucosylglycerol]
Wound healing progress based on the PBS control (MW) [1]: 1.17 | Absolute wound healing progress (wound healing score, MW) [1]: 1.66
